Biological target: T1, human TLR9 (Homo sapiens, UniProt Q9NR96)
T1 construct: host or cells: HEK-Blue cells
T1 sequence (Q9NR96 26-1032): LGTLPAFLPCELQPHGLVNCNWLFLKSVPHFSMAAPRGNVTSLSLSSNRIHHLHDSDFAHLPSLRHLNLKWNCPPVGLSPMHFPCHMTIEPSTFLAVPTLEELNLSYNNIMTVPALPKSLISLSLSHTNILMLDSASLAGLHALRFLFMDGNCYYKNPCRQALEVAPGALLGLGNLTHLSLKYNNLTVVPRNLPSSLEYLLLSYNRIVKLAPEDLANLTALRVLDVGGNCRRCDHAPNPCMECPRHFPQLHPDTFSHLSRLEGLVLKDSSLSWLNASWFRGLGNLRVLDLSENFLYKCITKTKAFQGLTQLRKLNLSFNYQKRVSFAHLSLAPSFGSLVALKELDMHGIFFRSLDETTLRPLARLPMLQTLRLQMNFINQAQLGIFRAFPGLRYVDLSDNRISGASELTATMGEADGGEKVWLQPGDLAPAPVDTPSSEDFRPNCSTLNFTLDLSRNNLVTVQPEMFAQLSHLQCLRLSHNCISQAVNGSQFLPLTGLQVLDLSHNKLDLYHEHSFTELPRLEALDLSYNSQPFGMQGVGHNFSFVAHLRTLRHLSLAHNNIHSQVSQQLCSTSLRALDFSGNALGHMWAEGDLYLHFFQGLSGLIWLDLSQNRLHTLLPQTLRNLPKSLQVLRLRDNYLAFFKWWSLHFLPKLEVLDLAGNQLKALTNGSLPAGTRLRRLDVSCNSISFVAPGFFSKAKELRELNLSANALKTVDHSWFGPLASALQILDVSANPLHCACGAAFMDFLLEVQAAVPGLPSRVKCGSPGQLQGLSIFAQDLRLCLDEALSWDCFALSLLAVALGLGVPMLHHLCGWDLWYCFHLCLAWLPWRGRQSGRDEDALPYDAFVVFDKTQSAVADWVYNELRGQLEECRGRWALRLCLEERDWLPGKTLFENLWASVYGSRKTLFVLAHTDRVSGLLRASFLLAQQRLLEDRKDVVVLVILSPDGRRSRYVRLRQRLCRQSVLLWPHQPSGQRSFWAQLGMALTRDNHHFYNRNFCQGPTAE
Assay: TLR9 inhibition reporter assay (HEK-Blue cells, SEAP reporter, ODN2006 stimulation)
Format: cell-based
Conditions: HEK-Blue cells overexpressing human TLR9, ODN2006 5 nM
Procedure, shortened: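 Screening used HEK-Blue cells overexpressing one human TLR (7, 8 or 9) and an IFN-β minimal promoter–NF-κB/AP-1 SEAP construct. Stimulation lasted 22 h at 37 °C with receptor-specific agonist: gardiquimod, R848 or ODN2006 at 7.5 μM, 15.9 μM and 5 nM.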

| IC50 [µM] | Compound |
| --- | --- |
| 13.2 | COc1ccc(-c2[nH]c3ccc(C4CCN(C(=O)CN(C)C)CC4)cc3c2C(O)C(F)(F)F)cc1OC (stereo not drawn) [Example 395, 1-(4-(2-(3,4-dimethoxyphenyl)-3-(2,2,2-trifluoro-1-hydroxyethyl)-1H-indol-5-yl)piperidin-1-yl)-2-(dimethylamino)ethan-1-one] |
| 5.02 | COc1ccc(-c2[nH]c3ccc(C4CCNCC4F)cc3c2C(C)C)cc1OC (racemic) [Example 320, 2-(3,4-dimethoxyphenyl)-5-(3-fluoropiperidin-4-yl)-3-isopropyl-1H-indole] |
| ≥ 50 | COc1ccc(-c2[nH]c3ccc(C4CCN(C(=O)Cc5nnn[nH]5)CC4)cc3c2CC(F)(F)F)cc1OC [Example 341, 1-(4-(2-(3,4-dimethoxyphenyl)-3-(2,2,2-trifluoroethyl)-1H-indol-5-yl)piperidin-1-yl)-2-(1H-tetrazol-5-yl)ethan-1-one] |
